Laboratory results as given in ChEMBL document CHEMBL5518234, “Structure-Guided Discovery of Potent and Selective CLK2 Inhibitors for the Treatment of Knee Osteoarthritis” (J Med Chem, 2024).
One block for each compound: values may come before it.

Key:
[1] = molecular target: Dual specificity protein kinase CLK2 (Homo sapiens, UniProt P49760)
Description: Inhibition of CLK2 (unknown origin) incubated for 10 mins in presence of ATP

[2] = molecular target: T1, Dual specificity tyrosine-phosphorylation-regulated kinase 1A (Homo sapiens, UniProt Q13627)
Description: Inhibition of DYRK1A (unknown origin) incubated for 10 mins in presence of ATP

[3] = molecular target: Dual specificity protein kinase CLK3 (Homo sapiens, UniProt P49761)
Description: Inhibition of CLK3 (unknown origin) incubated for 10 mins in presence of ATP

[4] = molecular target: Homeodomain-interacting protein kinase 2 (Homo sapiens) (UniProt Q9H2X6); conditions: dose 100.0 nM
Description: Inhibition of HIPK2 (unknown origin) at 100 nM relative to control

[5] = molecular target: T2, Dual specificity protein kinase CLK1 (Homo sapiens, UniProt P49759)
Target sequence in this assay (P49759 whole entry): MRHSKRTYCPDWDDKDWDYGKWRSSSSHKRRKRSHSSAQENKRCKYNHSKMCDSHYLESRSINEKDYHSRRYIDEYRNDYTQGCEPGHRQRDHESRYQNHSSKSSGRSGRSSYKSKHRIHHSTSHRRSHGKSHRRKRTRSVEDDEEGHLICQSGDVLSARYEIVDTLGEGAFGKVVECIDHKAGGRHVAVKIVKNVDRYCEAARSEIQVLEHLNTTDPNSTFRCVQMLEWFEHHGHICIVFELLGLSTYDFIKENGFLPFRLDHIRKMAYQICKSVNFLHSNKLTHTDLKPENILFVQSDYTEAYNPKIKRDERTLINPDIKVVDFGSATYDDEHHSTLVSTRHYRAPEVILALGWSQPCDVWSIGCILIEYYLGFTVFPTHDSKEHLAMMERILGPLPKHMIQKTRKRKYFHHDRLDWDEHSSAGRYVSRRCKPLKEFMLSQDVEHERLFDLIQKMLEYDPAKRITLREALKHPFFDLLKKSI
Description: Inhibition of CLK1 (unknown origin) incubated for 10 mins in presence of ATP

[6] = molecular target: T1, Dual specificity tyrosine-phosphorylation-regulated kinase 1A; conditions: dose 100.0 nM
Description: Inhibition of DYRKIA (unknown origin) at 100 nM relative to control

[7] = molecular target: T3, Dual specificity protein kinase CLK4 (Homo sapiens, UniProt Q9HAZ1)
Description: Inhibition of CLK4 (unknown origin) incubated for 10 mins in presence of ATP

[8] = molecular target: Dual specificity tyrosine-phosphorylation-regulated kinase 1B (Homo sapiens) (UniProt Q9Y463); conditions: dose 100.0 nM
Description: Inhibition of DYRK1B (unknown origin) at 100 nM relative to control

[9] = molecular target: T4, Serine/arginine-rich splicing factor 6 (Rattus norvegicus) (UniProt G3V6S8); conditions: Chondrocyte, dose 10-100 nM, time 1.0 hrs
T4 sequence (whole entry): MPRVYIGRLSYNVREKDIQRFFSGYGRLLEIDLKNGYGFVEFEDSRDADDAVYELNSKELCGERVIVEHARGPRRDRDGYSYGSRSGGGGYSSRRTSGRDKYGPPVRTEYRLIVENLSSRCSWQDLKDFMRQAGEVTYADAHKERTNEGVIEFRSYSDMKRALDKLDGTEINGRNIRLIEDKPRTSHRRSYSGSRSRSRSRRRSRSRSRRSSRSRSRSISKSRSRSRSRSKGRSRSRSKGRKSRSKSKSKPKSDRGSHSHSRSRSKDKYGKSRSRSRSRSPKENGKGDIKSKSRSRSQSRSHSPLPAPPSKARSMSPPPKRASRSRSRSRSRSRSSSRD

[10] = molecular target: TRAF2 and NCK-interacting protein kinase (Homo sapiens) (UniProt Q9UKE5); conditions: dose 100.0 nM
Description: Inhibition of TNIK (unknown origin) at 100 nM relative to control

[11] = molecular target: Serine/threonine-protein kinase pim-3 (Homo sapiens) (UniProt Q86V86); conditions: dose 100.0 nM
Description: Inhibition of PIM3 (unknown origin) at 100 nM relative to control

[12] = molecular target: T3, Dual specificity protein kinase CLK4; conditions: dose 100.0 nM
Description: Inhibition of CLK4 (unknown origin) at 100 nM relative to control

[13] = molecular target: Receptor-type tyrosine-protein kinase FLT3 (Homo sapiens) (UniProt P36888); conditions: dose 100.0 nM
Description: Inhibition of FLT3 (unknown origin) at 100 nM relative to control

[14] = molecular target: T2, Dual specificity protein kinase CLK1; conditions: dose 100.0 nM
Target sequence in this assay (P49759 whole entry, looked up): as the sequence (P49759 whole entry) above
Description: Inhibition of CLK1 (unknown origin) at 100 nM relative to control

Chain of Dual specificity protein kinase CLK2 (P49760 whole entry): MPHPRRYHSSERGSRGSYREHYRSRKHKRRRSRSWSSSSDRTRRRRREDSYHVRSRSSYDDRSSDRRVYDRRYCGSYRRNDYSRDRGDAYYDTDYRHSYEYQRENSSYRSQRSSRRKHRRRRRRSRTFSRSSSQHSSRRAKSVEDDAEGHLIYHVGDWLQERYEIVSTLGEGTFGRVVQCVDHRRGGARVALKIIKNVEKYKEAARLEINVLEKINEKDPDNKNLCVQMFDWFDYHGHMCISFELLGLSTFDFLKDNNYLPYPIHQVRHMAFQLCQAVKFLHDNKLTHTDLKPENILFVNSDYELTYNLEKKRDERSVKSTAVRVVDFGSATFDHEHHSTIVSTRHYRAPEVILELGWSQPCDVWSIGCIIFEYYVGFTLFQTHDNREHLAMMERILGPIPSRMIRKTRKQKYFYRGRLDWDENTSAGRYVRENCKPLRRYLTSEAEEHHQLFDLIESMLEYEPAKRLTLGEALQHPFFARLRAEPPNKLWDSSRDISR
Chain of Dual specificity protein kinase CLK3 (P49761 whole entry): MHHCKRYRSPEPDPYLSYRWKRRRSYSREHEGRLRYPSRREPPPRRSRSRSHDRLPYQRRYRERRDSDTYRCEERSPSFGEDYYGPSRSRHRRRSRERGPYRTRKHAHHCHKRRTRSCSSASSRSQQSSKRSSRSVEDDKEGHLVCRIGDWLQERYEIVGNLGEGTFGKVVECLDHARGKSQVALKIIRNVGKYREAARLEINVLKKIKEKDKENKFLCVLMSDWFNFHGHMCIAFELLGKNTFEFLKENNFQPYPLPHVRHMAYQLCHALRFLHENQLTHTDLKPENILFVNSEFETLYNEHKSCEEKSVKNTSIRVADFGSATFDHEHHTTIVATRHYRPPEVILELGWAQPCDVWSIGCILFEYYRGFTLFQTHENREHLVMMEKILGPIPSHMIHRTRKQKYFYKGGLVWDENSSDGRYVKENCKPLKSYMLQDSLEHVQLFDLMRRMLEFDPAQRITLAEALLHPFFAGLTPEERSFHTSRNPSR
Chain of Receptor-type tyrosine-protein kinase FLT3 (Homo sapiens) (P36888 whole entry): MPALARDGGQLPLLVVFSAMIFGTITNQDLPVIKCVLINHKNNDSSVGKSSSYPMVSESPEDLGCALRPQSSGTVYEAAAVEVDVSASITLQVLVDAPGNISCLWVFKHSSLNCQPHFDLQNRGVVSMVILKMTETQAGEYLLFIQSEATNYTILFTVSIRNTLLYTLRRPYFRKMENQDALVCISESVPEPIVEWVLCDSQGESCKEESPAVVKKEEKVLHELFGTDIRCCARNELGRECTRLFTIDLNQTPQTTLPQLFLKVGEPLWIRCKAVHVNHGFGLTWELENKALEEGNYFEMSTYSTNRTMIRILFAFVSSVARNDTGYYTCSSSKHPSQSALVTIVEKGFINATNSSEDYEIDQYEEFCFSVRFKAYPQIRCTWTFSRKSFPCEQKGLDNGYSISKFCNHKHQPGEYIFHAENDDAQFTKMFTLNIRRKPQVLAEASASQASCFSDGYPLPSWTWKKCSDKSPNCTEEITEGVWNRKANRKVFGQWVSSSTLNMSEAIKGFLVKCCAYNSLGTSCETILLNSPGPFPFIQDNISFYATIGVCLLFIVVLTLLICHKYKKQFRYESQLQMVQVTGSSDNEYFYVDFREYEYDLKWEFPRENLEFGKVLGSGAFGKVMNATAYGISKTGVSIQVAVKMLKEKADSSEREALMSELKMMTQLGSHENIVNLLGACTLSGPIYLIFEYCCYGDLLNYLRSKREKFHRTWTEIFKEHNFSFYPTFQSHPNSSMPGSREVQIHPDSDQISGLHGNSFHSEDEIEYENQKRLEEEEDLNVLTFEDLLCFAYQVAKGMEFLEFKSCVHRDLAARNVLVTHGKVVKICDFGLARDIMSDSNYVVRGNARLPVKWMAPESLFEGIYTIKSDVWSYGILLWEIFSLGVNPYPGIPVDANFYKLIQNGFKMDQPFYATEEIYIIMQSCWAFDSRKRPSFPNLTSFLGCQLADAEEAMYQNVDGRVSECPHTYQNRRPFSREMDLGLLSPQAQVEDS
Chain of Homeodomain-interacting protein kinase 2 (Homo sapiens) (Q9H2X6 whole entry, looked up): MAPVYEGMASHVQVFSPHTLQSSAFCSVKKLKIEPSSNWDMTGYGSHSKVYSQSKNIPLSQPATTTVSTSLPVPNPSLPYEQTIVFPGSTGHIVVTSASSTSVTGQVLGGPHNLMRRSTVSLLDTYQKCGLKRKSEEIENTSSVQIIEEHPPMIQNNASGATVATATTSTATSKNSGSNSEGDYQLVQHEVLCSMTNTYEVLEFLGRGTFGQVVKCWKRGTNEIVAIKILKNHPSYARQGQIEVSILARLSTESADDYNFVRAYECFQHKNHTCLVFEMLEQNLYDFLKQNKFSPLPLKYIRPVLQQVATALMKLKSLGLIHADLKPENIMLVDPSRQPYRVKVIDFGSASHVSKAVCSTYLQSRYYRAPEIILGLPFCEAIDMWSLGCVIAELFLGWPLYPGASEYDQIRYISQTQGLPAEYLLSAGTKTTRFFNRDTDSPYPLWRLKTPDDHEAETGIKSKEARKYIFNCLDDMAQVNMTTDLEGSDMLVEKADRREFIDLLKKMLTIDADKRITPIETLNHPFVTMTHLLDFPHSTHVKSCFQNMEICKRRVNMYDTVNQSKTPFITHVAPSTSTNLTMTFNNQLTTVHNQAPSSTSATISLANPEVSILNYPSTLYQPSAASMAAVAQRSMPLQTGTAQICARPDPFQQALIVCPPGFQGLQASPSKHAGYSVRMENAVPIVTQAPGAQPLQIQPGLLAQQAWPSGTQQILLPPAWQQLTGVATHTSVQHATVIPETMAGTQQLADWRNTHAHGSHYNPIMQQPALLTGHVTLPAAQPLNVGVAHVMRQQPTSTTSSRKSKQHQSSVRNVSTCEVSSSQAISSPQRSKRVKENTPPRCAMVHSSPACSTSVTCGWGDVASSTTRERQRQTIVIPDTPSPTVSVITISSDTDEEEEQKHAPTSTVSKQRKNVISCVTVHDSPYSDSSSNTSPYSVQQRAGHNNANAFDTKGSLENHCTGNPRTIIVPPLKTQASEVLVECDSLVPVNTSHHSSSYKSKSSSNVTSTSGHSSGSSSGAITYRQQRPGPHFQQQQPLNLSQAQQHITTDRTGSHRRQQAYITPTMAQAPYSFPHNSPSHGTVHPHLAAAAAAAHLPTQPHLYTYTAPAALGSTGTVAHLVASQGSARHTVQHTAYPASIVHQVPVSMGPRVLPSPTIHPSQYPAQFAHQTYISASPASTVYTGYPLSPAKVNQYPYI
Chain of Dual specificity tyrosine-phosphorylation-regulated kinase 1B (Homo sapiens) (Q9Y463 whole entry, looked up): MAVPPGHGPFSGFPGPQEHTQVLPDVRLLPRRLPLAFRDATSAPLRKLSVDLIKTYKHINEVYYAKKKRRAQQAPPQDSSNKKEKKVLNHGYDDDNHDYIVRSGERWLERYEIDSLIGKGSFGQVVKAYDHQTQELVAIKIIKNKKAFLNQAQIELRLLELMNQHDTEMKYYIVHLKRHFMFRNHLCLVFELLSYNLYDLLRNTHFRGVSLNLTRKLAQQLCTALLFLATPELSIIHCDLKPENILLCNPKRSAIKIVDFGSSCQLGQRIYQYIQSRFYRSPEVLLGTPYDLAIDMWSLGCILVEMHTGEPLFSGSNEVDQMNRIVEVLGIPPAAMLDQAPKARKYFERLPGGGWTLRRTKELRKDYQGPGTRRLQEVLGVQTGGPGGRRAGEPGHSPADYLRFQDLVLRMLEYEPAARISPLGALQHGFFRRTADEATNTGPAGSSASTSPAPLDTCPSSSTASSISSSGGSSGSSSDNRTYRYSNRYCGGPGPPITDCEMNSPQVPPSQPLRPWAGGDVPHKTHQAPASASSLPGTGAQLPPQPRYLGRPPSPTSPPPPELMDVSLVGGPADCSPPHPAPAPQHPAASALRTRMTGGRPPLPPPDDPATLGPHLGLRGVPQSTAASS

SMILES: CC(C)CC(=O)Nc1cncc(-c2ccc3[nH]nc(C#CC4CC4)c3c2)c1
IC50 [3]: > 100 nM

SMILES: CC(C)C[C@H](N)COc1cncc(-c2ccc3[nH]nc(C#CC4CC4)c3c2)c1
IC50 [3]: > 100 nM

SMILES: CC(C)C[C@H](N)COc1cncc(-c2ccc3[nH]nc(C#Cc4cccc(F)c4)c3c2)c1
IC50 [3]: > 100 nM

SMILES: CC(C)CC(=O)Nc1cncc(-c2ccc3[nH]nc(C#Cc4ccncc4)c3c2)c1
IC50 [3]: > 100 nM

SMILES: CC(C)CC(=O)Nc1cncc(-c2ccc3[nH]nc(C#Cc4ccccc4Cl)c3c2)c1
IC50 [3]: > 100 nM

SMILES: CC(C)CC(=O)Nc1cncc(-c2ccc3[nH]nc(C#Cc4ccc5ccccc5n4)c3c2)c1
IC50 [3]: > 100 nM

SMILES: CC(C)CC(=O)Nc1cncc(-c2ccc3[nH]nc(C#Cc4ncccn4)c3c2)c1
IC50 [3]: > 100 nM

More lines, now with the values ahead:

IC50 [1]: 12.3 nM
IC50 [2]: 37.2 nM
IC50 [3]: > 100 nM
SMILES: Cc1[nH]nc2ccc(-c3cncc(OC[C@@H](N)CC(C)C)c3)cc12

IC50 [1]: 10 nM
IC50 [3]: > 100 nM
SMILES: C(#Cc1n[nH]c2ccc(-c3cncc(OCC4CCCN4)c3)cc12)c1ccsc1 (stereo not given)

IC50 [3]: 15.6 nM
SMILES: CC(C)CC(=O)Nc1cncc(-c2ccc3[nH]nc(C#Cc4cccnc4)c3c2)c1

IC50 [3]: > 100 nM
SMILES: CC(C)CC(=O)Nc1cncc(-c2ccc3[nH]nc(C#Cc4cccc(C(=O)O)c4)c3c2)c1

IC50 [1]: 10.2 nM
IC50 [3]: > 100 nM
SMILES: CC(C)CC(=O)Nc1cncc(-c2ccc3[nH]nc(C#Cc4ccc(C=O)cc4)c3c2)c1

inhibition [4]: 93.1%
IC50 [5]: 21 nM
inhibition [6]: 93.2%
IC50 [7]: 3.2 nM
inhibition [8]: 94.7%
inhibition [9]: Dose-Dependent Effect
IC50 [2]: 21.7 nM
inhibition [10]: 94.1%
inhibition [11]: 92.4%
inhibition [12]: 94.4%
inhibition [13]: 96%
inhibition [14]: 97.2%
IC50 [3]: > 100 nM
SMILES: CC(C)C[C@H](N)COc1cncc(-c2ccc3[nH]nc(C#Cc4ccsc4)c3c2)c1

IC50 [3]: > 100 nM
SMILES: CC(C)CC(=O)Nc1cncc(-c2ccc3[nH]nc(C#Cc4ccc5cnccc5c4)c3c2)c1
